Test results reported in the METLIN SMRT retention time set (Domingo-Almenara et al. 2019).

test: gradient 5% acetonitrile 3 min, to 50% in 2 min, to 85% in 15 min, held 3 min, 100 µL/min; conditions: column: Zorbax Extend-C18 2.1 x 50 mm; eluents: water / acetonitrile, 0.1% formic acid
Procedure, shortened: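 Values are retention times taken from adduct peaks that software picked and an analyst inspected. The pure standards were run as mixtures of ~100 molecules on HPLC linked to a quadrupole time-of-flight mass spectrometer, in positive and negative ionization mode. A Zorbax Extend-C18 column (2.1 × 50 mm, 1.8 μm) was used at 100 μL/min with water and acetonitrile, each including 0.1% formic acid.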

| SMILES | RP-LC retention time |
| --- | --- |
| N#Cc1ccc(NC(=O)Cc2csc3nc(-c4ccccc4)cn23)cc1 | 763 s |
| CCOCCCNC(=O)CN1C(=O)C2CCCCN2c2ccc(C(=O)N3CCCC3)cc21 (configuration not stated) | 694 s |
| Cc1cc2c(c(=O)n(-c3ccccc3)c(=O)n2CC(=O)Nc2cccc(C(C)C)c2)n1C | 975 s |
| Cc1ccc(-c2ncccc2CNS(=O)(=O)c2ccc(F)cc2)cc1 | 707 s |
| COc1ccc(-c2nnc(Cc3nc(C(C)C)no3)o2)cc1 | 858 s |
| Cc1nccn1Cc1noc(-c2ccccc2)n1 | 600 s |
| CC(C)CNC(=O)CCc1nc2ccccc2n(CC(=O)NCCCc2ccccc2)c1=O | 834 s |
| COCCc1noc(-c2ccc(=O)n(CC(=O)Nc3cc(F)ccc3C)c2)n1 | 704 s |
| CC1CCN(C(=O)C2CCN(c3cncnc3N3CCN(C)CC3)CC2)CC1 | 558 s |
| NP(=O)(Oc1c2occc2cc2ccc(=O)oc12)N(CCCl)CCCl (configuration not stated) | 738 s |
| CCN1C(=O)c2cc(S(=O)(=O)Nc3cc(F)cc(F)c3)ccc2Oc2cccnc21 | 1040 s |
| Cc1ccc(CNC(=O)C2(C)CN(S(C)(=O)=O)CC(=O)N2Cc2cccc(C)c2)cc1 (configuration not stated) | 868 s |
| COc1cccc(S(=O)(=O)N2CCCN(C)c3ccccc32)c1 | 976 s |
| COCCN1C(=O)CCc2cc(NS(=O)(=O)c3ccc(F)c(C)c3)ccc21 | 800 s |
| Cc1ccc2ccc(C#N)cc2c1O | 892 s |
| COCCC1CCN(C(=O)Cc2c(C)noc2C)CC1 | 636 s |
| CCn1cc(C(CNC(=O)Nc2ccc(OC)cc2)c2cccnc2)c2ccccc21 (configuration not stated) | 700 s |
| CN(CCNC(=O)CCC(=O)N1CCc2c(c(C(=O)N3CCCC3)nn2C)C1)C1CCCCC1 | 590 s |
| CC(=O)N1c2ccc(S(=O)(=O)N3CCCC3)cc2CC1C(=O)NCCN1CCCCC1 (configuration not stated) | 592 s |
| Cc1ccc(S(=O)(=O)N(c2ccc(Br)cc2)C2C=CS(=O)(=O)C2)cc1 (configuration not stated) | 887 s |
| c1ccc(-c2cn3c(n2)SCC3)cc1 | 549 s |
| CCOC(=O)C1CCCN(C(=O)c2ccc(SCCN3CCOCC3)nc2)C1 (configuration not stated) | 616 s |

The remaining lines, values ahead:

| RP-LC retention time | SMILES |
| --- | --- |
| 871 s | COc1ccc(Cl)cc1NC(=O)Nc1ccc2c(c1)CN(C(=O)C1CC1)CC2 |
| 726 s | O=C(Nc1ccc2c(c1)OCO2)N1CCC(n2c(-c3ccco3)nc3cccnc32)C1 (configuration not stated) |
| 829 s | CC(C)CC(=O)N1CCN(c2ccc(=O)n(-c3cccc(Cl)c3)n2)CC1 |
| 736 s | Cc1ccc(C)c(NC(=O)Cc2nnc(-c3ccc4ncccc4c3)o2)c1 |
| 1000 s | Cc1ccc(NC(=O)Cn2nc(N3CCCC3)c3ccccc3c2=O)cc1C |
| 968 s | CCCOc1nc2ccccc2nc1N1CCCC(C(=O)Nc2ccc(NC(C)=O)cc2)C1 (configuration not stated) |
| 856 s | Cc1ccc(C)c(S(=O)(=O)N2C[C@@H](F)C[C@H]2C(=O)N2CCCCC2)c1 |
| 884 s | Cc1ccc(NC(=O)Cc2csc3nc(-c4ccc(C)c(C)c4)cn23)cc1 |
| 1160 s | Cc1ccc(C)c(CS(=O)(=O)N2CCc3nc(-c4ccc(F)cc4)ncc3C2)c1 |
| 666 s | CC1CCCN(c2ccc(NC(=O)c3cccs3)cc2C(=O)O)C1 (configuration not stated) |
| 1280 s | Cc1ccc(Sc2nccnc2N2CCCC(C(=O)Nc3ccc(Br)cc3)C2)cc1 (configuration not stated) |
| 682 s | Cc1ccc(NC(=O)N2CCCC(Cn3cnc4cccnc43)C2)c(Cl)c1 (configuration not stated) |
| 590 s | CC(=O)N1c2ccc(S(=O)(=O)N(C)CC(=O)N3CCN(c4ccccn4)CC3)cc2CC1C (configuration not stated) |
| 823 s | COc1ccccc1N1CCN(c2cc(SCC(=O)NCc3ccccc3)ncn2)CC1 |
| 970 s | Cc1ccc(NC(=O)Cn2nc(N3CCSCC3)c3ccccc3c2=O)cc1Cl |
